According to ChEMBL document CHEMBL5120836, “Discovery of novel 7,8-dihydropteridine-6(5H)-one-based DNA-PK inhibitors as potential anticancer agents via scaffold hopping strategy” (Eur J Med Chem, 2022):
pIC50: −log10 of the molar value. Converted amounts (≈) assume the structure as drawn. The source made the active and inactive calls. No cut-off for these calls is given here.

Key:
[1] = molecular target: DNA-dependent protein kinase catalytic subunit (Homo sapiens, UniProt P78527); assay: Inhibition of human native full length DNA-PK by ADP-Glo assay
[2] = MRT (0 to infinity) in Sprague-Dawley rat at 5 mg/kg, po; type: ADME, organism-based; details: in vivo
[3] = Toxicity in BALB/c nude mouse xenografted with human HL-60 cells assessed as effect on body weight at 100 mg/kg, po qd for 16 days co-administered with doxorubicin; type: organism-based; details: in vivo, 384 h, time 16 day
HCT-116 [4] = assay: Induction of cell cycle arrest in human HCT-116 cells assessed as increase in accumulation of cells at G2/M phase at 1 uM incubated for 24 hrs in presence of 100 nM doxorubicin by PI staining based flow cytometry; type: functional
HCT-116 [5] = assay: Induction of apoptosis in human HCT-116 cells assessed as viable cells at 1 uM incubated for 24 hrs by AnnexinV-FITC/PI staining based flow cytometry (reference value: 93.9%); type: functional; details: read-out: Activity
[6] = Cmax in Sprague-Dawley rat at 5 mg/kg, po; type: ADME, organism-based; set-up: dose 5 mg/kg, route po; details: in vivo
HCT-116 [7] = assay: Induction of apoptosis in human HCT-116 cells assessed as necrotic cells at 1 uM incubated for 24 hrs by AnnexinV-FITC/PI staining based flow cytometry (reference value: 0.031%); type: functional
[8] = Kinetic solubility of the compound in phosphate-buffered solution at pH 6.4 incubated for 24 hrs by HPLC-MS/MS analysis; type: physicochemical; details: phosphate buffer, read-out: Kinetic_solubility
[9] = Lipophilicity, logP of the compound; type: physicochemical; details: octanol/water
HCT-116 [10] = assay: Disruption of mitochondrial function in human HCT-116 cells assessed as decrease in mitochondrial membrane potential by measuring proportion of cells with red fluorescence at 1 uM incubated for 24 hrs by JC-1 staining based flow cytometry (reference value: 99.4%); type: functional; set-up: scale not given: the % may be the effect or the level left
HCT-116 [11] = assay: Disruption of mitochondrial function in human HCT-116 cells assessed as decrease in mitochondrial membrane potential by measuring proportion of cells with green fluorescence at 1 uM incubated for 24 hrs by JC-1 staining based flow cytometry (reference value: 0.566%); type: functional; set-up: scale not given: the % may be the effect or the level left
[12] = Plasma protein binding in human assessed as free fraction; type: ADME, cell-free
HCT-116 [13] = assay: Antiproliferative activity against human HCT-116 cells assessed as inhibition of cell growth incubated for 48 hrs in presence of 100 nM doxorubicin by MTT assay; type: functional, cell-based; details: HCT-116, 48 h
[14] = Plasma protein binding in rat assessed as free fraction; type: ADME, cell-free
[15] = Toxicity in BALB/c nude mouse xenografted with human HL-60 cells assessed as effect on body weight at 100 mg/kg, po qd for 16 days; type: organism-based; details: in vivo, 384 h, time 16 day
HCT-116 [16] = assay: Induction of apoptosis in human HCT-116 cells assessed as early apoptotic cells at 1 uM incubated for 24 hrs in presence of 100 nM doxorubicin by AnnexinV-FITC/PI staining based flow cytometry (reference value: 3.04%); type: functional
HCT-116 [17] = assay: Induction of apoptosis in human HCT-116 cells assessed as late apoptotic cells at 1 uM incubated for 24 hrs by AnnexinV-FITC/PI staining based flow cytometry (reference value: 3.07%); type: functional
[18] = Tmax in Sprague-Dawley rat at 5 mg/kg, po; type: ADME, organism-based; details: in vivo
[19] = Kinetic solubility of the compound in phosphate-buffered solution at pH 7.4 incubated for 24 hrs by HPLC-MS/MS analysis; type: physicochemical; details: phosphate buffer, read-out: Kinetic_solubility
HCT-116 [20] = assay: Induction of apoptosis in human HCT-116 cells assessed as late apoptotic cells at 1 uM incubated for 24 hrs in presence of 100 nM doxorubicin by AnnexinV-FITC/PI staining based flow cytometry (reference value: 3.07%); type: functional
HCT-116 [21] = assay: Induction of cell cycle arrest in human HCT-116 cells assessed as increase in accumulation of cells at […] at 1 uM incubated for 24 hrs in presence of 100 nM doxorubicin by PI staining based flow cytometry; type: functional
HCT-116 [22] = assay: Induction of apoptosis in human HCT-116 cells assessed as early apoptotic cells at 1 uM incubated for 24 hrs by AnnexinV-FITC/PI staining based flow cytometry (reference value: 3.04%); type: functional
[23] = AUC (0 to infinity) in Sprague-Dawley rat at 5 mg/kg, po; type: ADME, organism-based; set-up: time infinity, dose 5 mg/kg, route po; details: in vivo
HCT-116 [24] = assay: Induction of apoptosis in human HCT-116 cells assessed as viable cells at 1 uM incubated for 24 hrs in presence of 100 nM doxorubicin by AnnexinV-FITC/PI staining based flow cytometry (reference value: 93.9%); type: functional; details: read-out: Activity
HL-60 [25] = assay: Synergistic antitumor activity against human HL-60 cells xenografted in BALB/c nude mouse assessed as tumor volume at 100 mg/kg, po qd for 16 days co-administered with doxorubicin (reference value: 32.2%); type: functional; details: HL-60, 384 h, time 16 day
HL-60 [26] = assay: Synergistic antitumor activity against human HL-60 cells xenografted in BALB/c nude mouse assessed as tumor weight at 100 mg/kg, po qd for 16 days co-administered with doxorubicin (reference value: 27.9%); type: functional; details: HL-60, 384 h, time 16 day
HCT-116 [27] = assay: Antiproliferative activity against human HCT-116 cells assessed as inhibition of cell growth incubated for 48 hrs by MTT assay; type: functional, cell-based; details: HCT-116, 48 h
HCT-116 [28] = assay: Induction of apoptosis in human HCT-116 cells assessed as necrotic cells at 1 uM incubated for 24 hrs in presence of 100 nM doxorubicin by AnnexinV-FITC/PI staining based flow cytometry (reference value: 0.031%); type: functional
HCT-116 [29] = assay: Synergistic antiproliferative activity against human HCT-116 cells assessed as combination index at 1 uM in presence of 100 nM doxorubicin by MTT assay; type: functional

DNA-dependent protein kinase catalytic subunit, sequence (P78527 whole entry): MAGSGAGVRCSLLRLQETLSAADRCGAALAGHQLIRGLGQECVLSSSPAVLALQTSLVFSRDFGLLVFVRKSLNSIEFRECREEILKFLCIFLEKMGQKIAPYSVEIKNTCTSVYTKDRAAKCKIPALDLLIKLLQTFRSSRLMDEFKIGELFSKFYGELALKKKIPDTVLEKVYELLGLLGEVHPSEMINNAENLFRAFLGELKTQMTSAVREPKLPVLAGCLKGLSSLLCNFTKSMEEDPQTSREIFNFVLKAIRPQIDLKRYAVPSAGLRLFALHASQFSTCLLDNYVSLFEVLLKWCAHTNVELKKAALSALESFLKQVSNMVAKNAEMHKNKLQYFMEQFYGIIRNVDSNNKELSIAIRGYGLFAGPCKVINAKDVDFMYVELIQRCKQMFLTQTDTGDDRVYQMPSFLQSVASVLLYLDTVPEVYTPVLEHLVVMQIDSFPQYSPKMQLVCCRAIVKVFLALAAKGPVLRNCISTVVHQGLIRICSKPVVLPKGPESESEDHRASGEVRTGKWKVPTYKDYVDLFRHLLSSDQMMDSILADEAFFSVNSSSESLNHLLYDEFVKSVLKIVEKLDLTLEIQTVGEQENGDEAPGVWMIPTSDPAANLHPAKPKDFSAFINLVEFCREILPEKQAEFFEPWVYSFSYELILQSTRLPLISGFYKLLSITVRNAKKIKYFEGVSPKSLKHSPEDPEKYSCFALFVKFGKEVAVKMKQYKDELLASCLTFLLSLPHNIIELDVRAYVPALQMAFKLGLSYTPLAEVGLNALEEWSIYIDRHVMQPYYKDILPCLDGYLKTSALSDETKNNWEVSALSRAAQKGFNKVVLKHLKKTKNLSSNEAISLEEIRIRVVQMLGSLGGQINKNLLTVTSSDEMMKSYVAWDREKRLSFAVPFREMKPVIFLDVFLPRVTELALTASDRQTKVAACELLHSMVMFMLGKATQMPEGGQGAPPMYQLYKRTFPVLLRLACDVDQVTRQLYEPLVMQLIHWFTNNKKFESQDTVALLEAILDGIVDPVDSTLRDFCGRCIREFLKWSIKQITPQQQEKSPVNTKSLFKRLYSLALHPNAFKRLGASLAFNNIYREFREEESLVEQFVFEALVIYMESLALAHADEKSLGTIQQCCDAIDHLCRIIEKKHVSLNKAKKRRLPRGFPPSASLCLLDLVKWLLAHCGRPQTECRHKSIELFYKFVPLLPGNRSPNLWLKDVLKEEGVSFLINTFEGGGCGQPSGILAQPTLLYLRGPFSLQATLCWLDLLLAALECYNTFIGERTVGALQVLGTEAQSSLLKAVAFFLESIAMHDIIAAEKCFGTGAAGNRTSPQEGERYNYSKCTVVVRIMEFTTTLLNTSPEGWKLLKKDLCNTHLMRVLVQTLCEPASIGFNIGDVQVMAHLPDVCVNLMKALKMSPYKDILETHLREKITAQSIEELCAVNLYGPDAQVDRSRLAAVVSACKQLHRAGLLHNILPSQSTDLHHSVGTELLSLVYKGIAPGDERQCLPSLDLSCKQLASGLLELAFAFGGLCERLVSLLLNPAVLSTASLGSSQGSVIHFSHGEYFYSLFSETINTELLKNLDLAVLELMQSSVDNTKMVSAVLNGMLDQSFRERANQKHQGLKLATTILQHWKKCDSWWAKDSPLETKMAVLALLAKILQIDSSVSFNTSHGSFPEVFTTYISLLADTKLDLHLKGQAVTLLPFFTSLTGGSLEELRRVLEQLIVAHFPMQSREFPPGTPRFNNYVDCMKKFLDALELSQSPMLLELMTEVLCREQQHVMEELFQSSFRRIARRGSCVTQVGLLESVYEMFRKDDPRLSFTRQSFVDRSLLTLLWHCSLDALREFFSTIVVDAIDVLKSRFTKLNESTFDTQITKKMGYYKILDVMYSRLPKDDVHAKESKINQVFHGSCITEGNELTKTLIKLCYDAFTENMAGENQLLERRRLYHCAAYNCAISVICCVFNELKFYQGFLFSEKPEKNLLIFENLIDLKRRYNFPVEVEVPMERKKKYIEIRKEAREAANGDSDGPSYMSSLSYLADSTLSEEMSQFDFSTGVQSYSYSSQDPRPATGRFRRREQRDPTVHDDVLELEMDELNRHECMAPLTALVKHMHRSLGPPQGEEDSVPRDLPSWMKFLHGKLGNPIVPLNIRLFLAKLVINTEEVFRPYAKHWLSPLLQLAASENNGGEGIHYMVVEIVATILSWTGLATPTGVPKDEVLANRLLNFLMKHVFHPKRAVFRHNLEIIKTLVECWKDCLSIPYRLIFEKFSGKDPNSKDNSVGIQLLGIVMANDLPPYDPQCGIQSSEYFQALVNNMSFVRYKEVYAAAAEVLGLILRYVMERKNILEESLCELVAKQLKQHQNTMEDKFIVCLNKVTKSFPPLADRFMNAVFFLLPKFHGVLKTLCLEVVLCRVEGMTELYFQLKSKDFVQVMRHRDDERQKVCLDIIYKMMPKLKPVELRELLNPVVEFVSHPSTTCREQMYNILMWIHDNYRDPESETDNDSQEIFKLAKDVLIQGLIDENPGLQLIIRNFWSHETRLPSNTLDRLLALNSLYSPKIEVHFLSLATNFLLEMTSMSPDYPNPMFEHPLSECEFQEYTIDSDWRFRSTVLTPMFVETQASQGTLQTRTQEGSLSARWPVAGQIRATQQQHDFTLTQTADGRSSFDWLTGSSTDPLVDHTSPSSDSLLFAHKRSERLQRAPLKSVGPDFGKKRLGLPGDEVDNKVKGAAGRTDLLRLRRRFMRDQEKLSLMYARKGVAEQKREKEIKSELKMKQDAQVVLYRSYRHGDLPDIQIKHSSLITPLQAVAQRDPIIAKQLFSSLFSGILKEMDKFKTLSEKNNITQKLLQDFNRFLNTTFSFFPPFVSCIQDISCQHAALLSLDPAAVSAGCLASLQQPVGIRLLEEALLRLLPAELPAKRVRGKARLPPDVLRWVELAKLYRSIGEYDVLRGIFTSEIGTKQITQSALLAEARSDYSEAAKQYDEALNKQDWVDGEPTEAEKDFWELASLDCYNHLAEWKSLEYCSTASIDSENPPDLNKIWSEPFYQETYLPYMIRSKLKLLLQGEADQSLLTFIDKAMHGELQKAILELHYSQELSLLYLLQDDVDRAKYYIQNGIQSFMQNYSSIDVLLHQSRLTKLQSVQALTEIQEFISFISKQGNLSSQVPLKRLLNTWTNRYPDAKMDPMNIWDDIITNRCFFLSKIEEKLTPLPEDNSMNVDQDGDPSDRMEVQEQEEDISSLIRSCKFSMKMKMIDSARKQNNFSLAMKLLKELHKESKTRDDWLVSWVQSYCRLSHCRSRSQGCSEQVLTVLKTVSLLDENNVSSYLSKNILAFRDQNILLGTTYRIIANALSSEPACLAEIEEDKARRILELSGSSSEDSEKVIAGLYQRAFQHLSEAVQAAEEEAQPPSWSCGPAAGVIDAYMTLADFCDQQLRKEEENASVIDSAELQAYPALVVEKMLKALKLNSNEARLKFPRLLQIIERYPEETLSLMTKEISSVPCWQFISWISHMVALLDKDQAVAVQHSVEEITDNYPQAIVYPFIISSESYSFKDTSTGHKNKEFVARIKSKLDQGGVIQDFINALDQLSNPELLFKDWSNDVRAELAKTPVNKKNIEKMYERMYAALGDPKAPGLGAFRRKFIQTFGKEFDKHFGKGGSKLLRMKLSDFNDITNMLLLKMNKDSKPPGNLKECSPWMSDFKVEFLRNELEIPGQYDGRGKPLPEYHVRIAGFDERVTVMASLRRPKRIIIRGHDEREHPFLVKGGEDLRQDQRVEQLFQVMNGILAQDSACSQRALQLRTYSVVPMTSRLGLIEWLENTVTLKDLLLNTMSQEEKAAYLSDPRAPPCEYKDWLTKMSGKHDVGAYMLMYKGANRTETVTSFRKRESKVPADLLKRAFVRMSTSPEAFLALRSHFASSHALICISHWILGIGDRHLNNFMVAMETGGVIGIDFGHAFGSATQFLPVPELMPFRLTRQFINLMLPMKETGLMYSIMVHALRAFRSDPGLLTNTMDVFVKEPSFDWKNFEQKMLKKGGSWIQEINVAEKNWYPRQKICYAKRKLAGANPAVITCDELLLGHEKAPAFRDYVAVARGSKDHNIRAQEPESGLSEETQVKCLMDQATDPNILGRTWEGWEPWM

For `Cc1cc2ncnn2cc1Nc1ncc2c(n1)C1(CCOCC1)C(=O)N2C(C)C`, the pIC50 [1] was 6.66.

For `CCN1C(=O)CN(C2CCOCC2)c2nc(Nc3cn4ncnc4cc3C)ncc21`, the pIC50 [1] was 8.47.

In the case of `Cc1cc2ncnn2cc1Nc1ncc2c(n1)N(C1CCOCC1)CC(=O)N2C(C)C`, the pIC50 [1] was 7.59.

In the case of `Cc1cc2ncnn2cc1Nc1ncc2c(n1)n(C1CCOCC1)c(=O)n2C` [AZD-7648], the MRT inf [2] was 2.51 h, the Activity [3] was “Non-Toxic” and the Activity (HCT-116 [4]) was 64.46%. For the same molecule, the viability at 1 µM (HCT-116 [5]) was 92.7%, the Cmax [6] was 1500 ng/mL and the Activity (HCT-116 [7]) was 0.05%. For the same molecule, the solubility kinetic at 24 h [8] was 101 µg/mL (≈ 266 µM), the logP [9] was 1.2 and the Activity (HCT-116 [10]) was 92.2%. It also gave an Activity (HCT-116 [11]) of 7.64%, a fraction unbound [12] of 0.834 and a pIC50 (HCT-116 [13]) of 4.71. The fraction unbound [14] was 0.653, the Activity [15] was “Non-Toxic” and the Activity (HCT-116 [16]) was 10.3%. The Activity (HCT-116 [17]) was 4.53%, the Tmax [18] was 0.83 h and the solubility kinetic at 24 h [19] was 120 µg/mL (≈ 316 µM). For the same molecule, the Activity (HCT-116 [20]) was 7.33%, the Activity (HCT-116 [21]) was “Active” and the Activity (HCT-116 [22]) was 2.76%. For the same molecule, the AUC(0-inf) [23] was 5240 ng·h/mL, the viability at 1 µM (HCT-116 [24]) was 82.3% and the inhibition in vivo at 100 mg/kg (HL-60 [25]) was 68.1%. The inhibition in vivo at 100 mg/kg (HL-60 [26]) was 55.3%, the pIC50 (HCT-116 [27]) was 4.45 and the Activity (HCT-116 [28]) was 0.102%. The CI (HCT-116 [29]) was 0.79.

Work on `Cc1cc2ncnn2cc1Nc1ncc2c(n1)N(C1CCOCC1)CC(=O)N2C1CC1` yielded a pIC50 [1] of 8.17.

In the case of `Cc1cc2ncnn2cc1Nc1ncc2c(n1)C1(CCC(OCC(F)F)CC1)C(=O)N2C` (stereo unspecified), the pIC50 [1] was 7.77.

Work on `CCN1C(=O)C2(CCOCC2)c2nc(Nc3cn4ncnc4cc3C)ncc21` yielded a pIC50 [1] of 6.87.

In the case of `Cc1cc2ncccc2cc1Nc1ncc2c(n1)C1(CCOCC1)C(=O)N2C`, the pIC50 [1] was 7.98.

With `Cc1cc2ncnn2cc1Nc1ncc2c(n1)N(C1CCOCC1)CC(=O)N2` the pIC50 [1] was 8.15.

`Cc1cc2nccnc2cc1Nc1ncc2c(n1)N(C1CCOCC1)CC(=O)N2C` gave a pIC50 [1] of 8.49.

`[2H]C([2H])([2H])N1C(=O)C2(CCOCC2)c2nc(Nc3cn4ncnc4cc3C)ncc21` gave a pIC50 [1] of 6.90.

`Cc1cc2ncccc2cc1Nc1ncc2c(n1)N(C1CCOCC1)CC(=O)N2C` gave a pIC50 [1] of 8.16.

With `Cc1cc2ncnn2cc1Nc1ncc2c(n1)C1(CCC1)C(=O)N2C` the pIC50 [1] was 7.67.

Molecule `Cc1cc2ncnn2cc1Nc1ncc2c(n1)C(C)(C)C(=O)N2C` has a pIC50 [1] of 7.32.
